Assay results reported in ChEMBL document CHEMBL1201862, “PubChem BioAssay data set” (2004).
Calls of active or inactive are those of the source.

How the values were obtained:
[1] = target: T1, DNA repair protein RAD52 homolog (Homo sapiens, UniProt P43351); format: functional, biochemical
T1 sequence (P43351 whole entry): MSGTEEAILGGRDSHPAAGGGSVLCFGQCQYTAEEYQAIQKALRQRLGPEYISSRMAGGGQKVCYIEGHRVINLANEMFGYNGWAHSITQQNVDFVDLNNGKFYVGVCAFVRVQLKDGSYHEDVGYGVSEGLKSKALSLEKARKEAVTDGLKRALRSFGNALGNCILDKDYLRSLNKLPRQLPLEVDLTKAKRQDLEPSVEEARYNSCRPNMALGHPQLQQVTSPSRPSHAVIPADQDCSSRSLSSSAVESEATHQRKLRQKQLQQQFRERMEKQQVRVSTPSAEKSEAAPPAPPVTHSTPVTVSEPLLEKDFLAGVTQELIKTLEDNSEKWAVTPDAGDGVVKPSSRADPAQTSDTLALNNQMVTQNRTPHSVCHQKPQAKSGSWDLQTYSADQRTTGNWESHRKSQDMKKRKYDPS

[2] = target: CAAX prenyl protease 1 (Saccharomyces cerevisiae S288c, UniProt P47154); test: Ste24 protease inhibitors, dose response, biochemical, S. cerevisiae, plate reader, cherry-pick (AID 488815)
Sequence of CAAX prenyl protease 1 (P47154 whole entry): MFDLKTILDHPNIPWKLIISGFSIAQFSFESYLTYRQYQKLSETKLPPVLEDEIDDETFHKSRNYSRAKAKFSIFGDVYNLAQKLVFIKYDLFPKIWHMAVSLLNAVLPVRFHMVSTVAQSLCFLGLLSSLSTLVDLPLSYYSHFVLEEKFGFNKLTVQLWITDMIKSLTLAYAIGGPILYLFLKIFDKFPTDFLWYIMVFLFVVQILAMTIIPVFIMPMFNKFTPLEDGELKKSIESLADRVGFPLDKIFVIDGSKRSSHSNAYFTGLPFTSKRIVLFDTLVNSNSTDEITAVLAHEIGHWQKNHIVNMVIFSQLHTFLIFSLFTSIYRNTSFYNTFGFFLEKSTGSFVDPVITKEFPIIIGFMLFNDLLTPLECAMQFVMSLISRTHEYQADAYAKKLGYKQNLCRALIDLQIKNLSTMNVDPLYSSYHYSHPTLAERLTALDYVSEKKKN

[3] = test system: INS1; test: beta cell apoptosis inhibitors, cytokine rescue, dose response, luminescence, retest (AID 449756); format: functional, cell-based; settings: Rattus norvegicus;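 also: cell death triggered by IL-1 beta plus TNF-alpha plus IFN-gamma mixture; protective hits raise ATP signal compared with cytokine alone wells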
[4] = target: Melanocortin receptor 4 (Homo sapiens, UniProt P32245); test: MC4R antagonist potency on cAMP, dose response, cell-based, TR-FRET, biased antagonists (AID 602298); format: functional;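 also: antagonist potency against agonist-stimulated cAMP production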
Sequence of Melanocortin receptor 4 (P32245 whole entry): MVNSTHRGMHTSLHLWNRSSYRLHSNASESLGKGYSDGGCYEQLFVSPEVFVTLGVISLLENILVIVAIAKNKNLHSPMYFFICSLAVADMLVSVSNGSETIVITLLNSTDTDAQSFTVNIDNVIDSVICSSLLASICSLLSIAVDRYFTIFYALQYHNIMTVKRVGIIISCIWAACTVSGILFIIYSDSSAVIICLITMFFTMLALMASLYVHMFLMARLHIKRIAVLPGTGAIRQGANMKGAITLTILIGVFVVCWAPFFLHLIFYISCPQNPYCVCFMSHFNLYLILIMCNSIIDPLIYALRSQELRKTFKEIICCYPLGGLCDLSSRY

[5] = test system: HEK293; test: cells; format: functional, cell-based; settings: Homo sapiens
[6] = test system: HEK293; test: NOD2 signaling inhibitors in MDP-stimulated cells, cell-based, uHTS, luminescence (AID 2001); format: functional; settings: Homo sapiens
[7] = test system: HEK293; test: cells; format: functional, cell-based; settings: Homo sapiens; remark: listed apart in the source
[8] = growth suppression of PTEN-null colon cells, dose response, cell-based, HCT116 PTEN knockout (AID 1047); format: functional;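 also: HCT116 colon tumor cells with PTEN knocked out; cells exposed to compound for 60 hours before readout; potency for loss of cell viability measured by luminescence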
[9] = target: T2, Hexokinase HKDC1 (Homo sapiens, UniProt Q2TB90); test: HKDC1 hexokinase inhibitors, dose response, biochemical, W721R variant (AID 504729); format: functional
T2 sequence (Q2TB90 whole entry): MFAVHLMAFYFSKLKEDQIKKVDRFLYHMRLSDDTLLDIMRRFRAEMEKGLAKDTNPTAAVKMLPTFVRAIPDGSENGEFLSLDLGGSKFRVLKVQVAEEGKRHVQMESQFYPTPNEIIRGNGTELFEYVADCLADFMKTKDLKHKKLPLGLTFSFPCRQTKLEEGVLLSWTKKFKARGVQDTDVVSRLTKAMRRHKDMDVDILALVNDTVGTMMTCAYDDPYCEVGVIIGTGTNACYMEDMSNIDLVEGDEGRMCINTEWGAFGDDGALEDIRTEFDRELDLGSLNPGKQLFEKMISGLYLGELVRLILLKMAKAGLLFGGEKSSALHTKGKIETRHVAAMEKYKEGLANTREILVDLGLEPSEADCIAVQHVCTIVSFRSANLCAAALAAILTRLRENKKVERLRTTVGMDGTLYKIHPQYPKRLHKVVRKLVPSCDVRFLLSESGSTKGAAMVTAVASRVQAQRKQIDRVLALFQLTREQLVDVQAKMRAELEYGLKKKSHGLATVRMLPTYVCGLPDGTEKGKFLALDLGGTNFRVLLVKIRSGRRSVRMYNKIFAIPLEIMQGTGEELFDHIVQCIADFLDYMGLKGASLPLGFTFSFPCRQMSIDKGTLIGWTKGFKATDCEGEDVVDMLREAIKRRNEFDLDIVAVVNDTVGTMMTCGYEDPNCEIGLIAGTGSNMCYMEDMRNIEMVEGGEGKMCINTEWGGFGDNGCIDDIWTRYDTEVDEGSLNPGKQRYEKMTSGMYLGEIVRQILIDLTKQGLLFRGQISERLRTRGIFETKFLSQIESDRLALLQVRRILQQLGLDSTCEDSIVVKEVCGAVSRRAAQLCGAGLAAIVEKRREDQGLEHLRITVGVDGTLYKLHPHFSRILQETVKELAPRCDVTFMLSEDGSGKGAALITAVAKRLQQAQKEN

[10] = non-specific cell cytotoxicity, dose response, cytotoxicity control for PAX8 inhibitor project, plate reader, dry powder samples (AID 743021); format: functional, cell-based

## COc1cc(/C=C/c2cc[n+](C)cc2)ccc1OCC(=O)Nc1ccc(Cl)c(Cl)c1
[1]
  AC50: 8.27 µM (active)

## CCCCCCCCCC[N+](C)(C)CC/C=C1/c2ccccc2Sc2ccc(Cl)cc21
[2]
  AC50: 6.47 µM (active)
[3]
  AC50: 5.67 µM (active)
[4]
  IC50: 31.2 µM (inactive)

## O=C(NCCc1ccccc1)C(c1cccs1)N(C(=O)CCl)c1ccc(Cl)cc1 (stereo not given)
[5]
  IC50: 11.5 µM (active)
[6]
  IC50: 5.36 µM (active)
[7]
  IC50: > 20 µM (inactive)
[8]
  EC50: 3.7 µM (active)
[9]
  IC50: 35.7 µM (inactive)
[10]
  AC50: 6.13 µM (active)
